Here are results for 19 compounds from US9212168B2 (priority 2011, dated 2015).

The test system of one experiment is HCV genotype 1a replicon. Description: HCV genotype 1a replicon assay (NS3 protease activity readout). The class given is cell-based, hepatitis C virus. As to conditions: for EC50: Hepatitis C virus, read-out: Genotype 1a, HCV genotype 1a replicon; for Genotype 1a: HCV genotype 1a replicon. An outline of the steps:
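Genotype 1a subgenomic replicon cells (APC89, Huh7.5) were treated with compound dose-responses in G418-free medium, 0.5% DMSO final, for 48 or 72 hours at 37° C. Lysate NS3/4a protease activity measured with 15 μM FRET substrate, 20 min at 37° C (ex 340/em 509 nm); EC50 by 4-parameter fit.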

Experiment [1] relates to HCV genotype 2a (J6 strain) NS5A chimeric replicon. Description: Replicon assay against NS5A sequence of genotype 2a (J6 strain), intergenotypic chimera. It counts as cell-based. As to conditions: Hepatitis C virus, read-out: Genotype 2a (J6). The method, then:
(§1) Assay 4: Replicon Assays Against NS5A Sequences of Other Genotypes
(§2) Potencies of test compounds against NS5A sequences of other genotypes were determined by creating intergenotypic chimeras. The entire NS5A gene from genotypes 2a, 2b, 3a, 4a, 5a, and 6a, or the nucleotide sequence encoding amino acids 11-118 of NS5A, was subcloned into a genotype 1b replicon. For genotype 2a, intergenotypic chimeras with both the JFH and the J6 strain were created. […] Since the majority of genotype 2a sequences in public databases contain the L31M sequence variant, the use of the J6 genotype 2a sequence may better reflect the antiviral potency of NS5A inhibitors.
(§3) These chimeric replicon plasmids were then linearized and in vitro transcribed to RNA. The RNA was used to transiently or stably transfect Huh-LUNET cells by electroporation, and the potencies of test compounds against the chimeras were determined as previously described.

For a further experiment, the system named is HCV genotype 1b replicon. Description: HCV genotype 1b replicon assay (Renilla luciferase readout). It counts as cell-based, hepatitis C virus. As to conditions: for EC50: Hepatitis C virus, read-out: Genotype 1b; for Genotype 1b: HCV genotype 1b replicon. An outline of the steps:
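Huh7-derived APC144 subgenomic replicon cells carrying Renilla luciferase–NS3-NS5B, seeded 10,000/well without G418, then treated with compound dose-responses for 48 h at 37 °C (0.5% DMSO final). Luciferase signal fitted by 4-parameter model to EC50, reported as pEC50.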

For experiment [2], the system named is HCV genotype 3a NS5A chimeric replicon. Briefly: Replicon assay against NS5A sequence of genotype 3a, intergenotypic chimera. It counts as cell-based. As to conditions: Hepatitis C virus, read-out: Genotype 3a. The protocol:
as §1, §2, §3

The subject of experiment [3] is HCV genotype 1a Y93H resistant mutant replicon. Description: Replicon assay against resistant mutant 1a Y93H (transient transfection). The class given is cell-based. As to conditions: Hepatitis C virus, read-out: Genotype 1a Y93H. The method, then: Assay 3: Replicon Assays Against Resistant Mutants […]
Potencies of test compounds against additional mutations of interest were determined using transient transfection assays. These mutants included genotype 1a Y93C, Y93H, M28T, Q30E, Q30K, L31M, and Y93N. The mutation was first introduced into the parental plasmid by site-directed mutagenesis. The replicon plasmid was then linearized and in vitro transcribed to RNA. The RNA was used to transiently transfect Huh-LUNET cells (obtained from ReBLikon GmbH, Schriesheim, Germany) by electroporation, and the potencies of test compounds against the mutants were determined as previously described.

Regarding `COC(=O)N[C@H](C(=O)N1C[C@@H](C)C[C@H]1c1nc(-c2ccc(-c3cc(Cl)c(NC(=O)c4ccc(N5CCN(C(=O)[C@H]6CC6(C)C)C[C@H]5C)nc4)cc3OC(F)(F)F)cc2)c[nH]1)C(C)C` [Example 2, [(S)-1-((2S,4S)-2-{4-[5′-Chloro-4′-({6-[(R)-4-((S)-2,2-dimethyl-cyclopropanecarbonyl)-2-methyl-piperazin-1-yl]-pyridine-3-carbonyl}-amino)-2′-trifluoromethoxy-biphenyl-4-yl]-1H-imidazol-2-yl}-4-methyl-pyrrolidine-1-carbonyl)-2-methyl-propyl]-carbamic acid methyl ester], the EC50 was below 0.1 nM in the experiment with HCV genotype 1a replicon, 1 to 10 nM in experiment [1], below 0.1 nM in the experiment with HCV genotype 1b replicon and 1 to 10 nM in experiment [2].

With `COC(=O)N[C@H](C(=O)N1C[C@@H](C#N)C[C@H]1c1nc(-c2ccc(-c3cc(Cl)c(NC(=O)c4ccc(N5CCN(C(=O)OC(C)(C)C)C[C@H]5C)nc4)cc3OC(F)(F)F)cc2)c[nH]1)C(C)C` [Example 17, (R)-4-[5-(5-Chloro-4′-{2-[(2S,4S)-4-cyano-1-((S)-2-methoxycarbonylamino-3-methyl-butyryl)-pyrrolidin-2-yl]-1H-imidazol-4-yl}-2-trifluoromethoxy-biphenyl-4-ylcarbamoyl)-pyridin-2-yl]-3-methyl-piperazine-1-carboxylic acid tert-butyl ester], the EC50 in the experiment on HCV genotype 1a replicon is 0.1 to 1 nM; in experiment [1], 10 to 1000 nM; in experiment [3] it was 10 to 1000 nM; in experiment [2], 10 to 1000 nM.

Turning to `COC(=O)N[C@H](C(=O)N1C[C@@H](SC)C[C@H]1c1nc(-c2ccc(-c3ccc(C(=O)Nc4ccc(N5CCN(C(=O)[C@H]6CC6(C)C)C[C@H]5C)nc4)cc3OC(F)(F)F)cc2)c[nH]1)C(C)C` [Example 9, ((S)-1-{(2S,4S)-2-[4-(4′-{6-[(R)-4-((S)-2,2-Dimethyl-cyclopropanecarbonyl)-2-methyl-piperazin-1-yl]-pyridin-3-ylcarbamoyl}-2′-trifluoromethoxy-biphenyl-4-yl)-1H-imidazol-2-yl]-4-methylsulfanyl-pyrrolidine-1-carbonyl}-2-methyl-propyl)-carbamic acid methyl ester], the EC50 with HCV genotype 1a replicon was below 0.1 nM; in experiment [1], 10 to 1000 nM; in the experiment on HCV genotype 1b replicon it was below 0.1 nM; in experiment [2] it was 10 to 1000 nM.

For the compound `COC(=O)N[C@H](C(=O)N1C[C@@H](C)C[C@H]1c1nc(-c2ccc(-c3ccc(C(=O)Nc4ccc(N5C[C@H](C)N(C(=O)[C@H]6CC6(C)C)C[C@H]5C)nc4)cc3OC(F)(F)F)cc2)c[nH]1)C(C)C` [Example 7, ((S)-1-{(2S,4S)-2-[4-(4′-{6-[(2R,5S)-4-((S)-2,2-Dimethyl-cyclopropanecarbonyl)-2,5-dimethyl-piperazin-1-yl]-pyridin-3-ylcarbamoyl}-2′-trifluoromethoxy-biphenyl-4-yl)-1H-imidazol-2-yl]-4-methyl-pyrrolidine-1-carbonyl}-2-methyl-propyl)-carbamic acid methyl ester], the EC50 was below 0.1 nM in the experiment on HCV genotype 1a replicon, 10 to 1000 nM in experiment [1], below 0.1 nM with HCV genotype 1b replicon and 10 to 1000 nM in experiment [2].

Regarding `COC(=O)N[C@H](C(=O)N1C[C@@H](C)C[C@H]1c1nc(-c2ccc(-c3ccc(C(=O)Nc4ccc(N5CCN(C(=O)[C@H]6CC6(C)C)C[C@H]5C)nc4)cc3OC(F)(F)F)cc2)c[nH]1)C1CCOCC1` [Example 22-4], the “Genotype 1a” value in the experiment on HCV genotype 1a replicon is “D (D represents pEC50>10 (EC50<0.1 nM))”. For the same compound, the “Genotype 1b” value at HCV genotype 1b replicon was “D (D represents pEC50>10 (EC50<0.1 nM))”.

`COC(=O)N[C@H](C(=O)N1C[C@@H](C)C[C@H]1c1nc(-c2ccc(-c3cc(Cl)c(C(=O)Nc4ccc(N5CCN(C(=O)C(C)(C)C)C[C@H]5C)nc4)cc3OC(F)(F)F)cc2)c(Cl)[nH]1)C1CCOCC1` [Example 22-7]: the EC50 with HCV genotype 1a replicon and in the experiment with HCV genotype 1b replicon was below 0.1 nM each time.

Regarding `COC(=O)NC(C(=O)N1CC(C)CC1c1nc(-c2ccc(-c3cc(Cl)c(NC(=O)c4ccc(N5CCN(C(=O)C6CC6(F)F)CC5C)nc4)cc3C(F)(F)F)cc2)c[nH]1)C(C)C` (mixture of isomers) [Example 1-55], in the experiment on HCV genotype 1a replicon, the “Genotype 1a” value is “D (D represents pEC50>10 (EC50<0.1 nM))”. Besides, at HCV genotype 1b replicon, the “Genotype 1b” value is reported as “D (D represents pEC50>10 (EC50<0.1 nM))”.

For `COC[C@H]1C[C@@H](c2nc(-c3ccc(-c4cc(Cl)c(C(=O)Nc5ccc(N6CCN(C(=O)C(C)(C)C)C[C@H]6C)nc5)cc4OC(F)(F)F)cc3)c[nH]2)N(C(=O)[C@@H](NC(=O)OC)C2CCOCC2)C1` [24-6], the “Genotype 1a” value with HCV genotype 1a replicon is given as “D (D represents pEC50>10 (EC50<0.1 nM))”. The “Genotype 1b” value at HCV genotype 1b replicon was “D (D represents pEC50>10 (EC50<0.1 nM))”.

Regarding `COC(=O)NC(C(=O)N1CC(C)CC1c1nc(-c2ccc(-c3cc(Cl)c(NC(=O)c4ccc(N5CCN(C(=O)C(C)(C)C)CC5C)nc4)cc3C(F)(F)F)cc2)c[nH]1)C1CC(C)OC(C)C1` (stereo not shown) [Example 19-9], the “Genotype 1a” value in the experiment on HCV genotype 1a replicon is “D (D represents pEC50>10 (EC50<0.1 nM))”. Also, at HCV genotype 1b replicon, the “Genotype 1b” value was “D (D represents pEC50>10 (EC50<0.1 nM))”.

With `COC(=O)N[C@H](C(=O)N1C[C@@H](O)C[C@H]1c1nc(-c2ccc(-c3ccc(NC(=O)c4ccc(N5CCN(C(=O)[C@]6(C)CCCN6C(=O)OC)C[C@H]5C)nc4)cc3)cc2)c[nH]1)C(C)C` [Example 5], the EC50 in the experiment on HCV genotype 1a replicon was 0.1 to 1 nM; with HCV genotype 1b replicon, below 0.1 nM.

Consider `COC(=O)N[C@H](C(=O)N1C[C@@H](SC)C[C@H]1c1nc(-c2ccc(-c3cc(Cl)c(C(=O)Nc4ccc(N5CCN(C(=O)C(C)(C)C)C[C@H]5C)nc4)cc3OC(F)(F)F)cc2)c[nH]1)C(C)C` [Example 5-3], for which the EC50 in the experiment on HCV genotype 1a replicon and in the experiment with HCV genotype 1b replicon was below 0.1 nM each time.

On to `COC(=O)N[C@H](C(=O)N1C[C@@H](C)C[C@H]1c1nc(-c2ccc(-c3ccc(C(=O)Nc4ccc(N5C[C@H](C)N(C(=O)[C@H]6CCCN6C(=O)C6CC6)C[C@H]5C)nc4)cc3OC(F)(F)F)cc2)c[nH]1)C(C)C` [Example 4-18], for which the “Genotype 1a” value in the experiment on HCV genotype 1a replicon is “D (D represents pEC50>10 (EC50<0.1 nM))”. Further, at HCV genotype 1b replicon, the “Genotype 1b” value is reported as “D (D represents pEC50>10 (EC50<0.1 nM))”.

As to `COC(=O)N[C@H](C(=O)N1C[C@@H](OC)C[C@H]1c1nc(-c2ccc(-c3ccc(C(=O)Nc4ccc(N5CCN(C(=O)C(C)(C)C)C[C@H]5C)nc4)cc3OC(F)(F)F)cc2)c[nH]1)C1CCOCC1` [Example 22-12], the “Genotype 1a” value in the experiment with HCV genotype 1a replicon was “D (D represents pEC50>10 (EC50<0.1 nM))”. The “Genotype 1b” value at HCV genotype 1b replicon was “D (D represents pEC50>10 (EC50<0.1 nM))”.

Turning to `COC(=O)N[C@H](C(=O)N1C[C@@H](N(C)C)C[C@H]1c1nc(-c2ccc(-c3ccc(NC(=O)c4ccc(N5CCN(C(=O)[C@H]6CC6(C)C)C[C@H]5C)nc4)cc3)cc2)c[nH]1)C(C)C` [Example 2-3], the “Genotype 1a” value in the experiment with HCV genotype 1a replicon was “D (D represents pEC50>10 (EC50<0.1 nM))”. For the same compound, the “Genotype 1b” value on HCV genotype 1b replicon is “D (D represents pEC50>10 (EC50<0.1 nM))”.

For the compound `COC(=O)N[C@H](C(=O)N1C[C@@H](C)C[C@H]1c1nc(-c2ccc(-c3cc(Cl)c(NC(=O)c4ccc(N5CCN(C(=O)NN6CCOC6=O)C[C@H]5C)nc4)cc3OC(F)(F)F)cc2)c[nH]1)C(C)C` [Example 12-17], the EC50 in the experiment with HCV genotype 1a replicon and with HCV genotype 1b replicon was below 0.1 nM each time.

Take `COC(=O)N[C@H](C(=O)N1C[C@@H](C)C[C@H]1c1nc(-c2ccc(-c3cc(F)c(NC(=O)c4ccc(N5CCN(C(=O)C(C)(C)C)C[C@H]5C)nc4)cc3OC(F)(F)F)cc2)c[nH]1)C1CCOCC1` [Example 13-22]: the EC50 with HCV genotype 1a replicon and in the experiment with HCV genotype 1b replicon was below 0.1 nM in each case.

As to `CNC(=O)N1C[C@@H](C)N(c2ccc(C(=O)Nc3cc(C(F)(F)F)c(-c4ccc(-c5c[nH]c([C@@H]6C[C@H](C)CN6C(=O)[C@@H](NC(=O)OC)C(C)C)n5)cc4)cc3F)cn2)C[C@@H]1C` [Example 1-8], the “Genotype 1a” value with HCV genotype 1a replicon is reported as “D (D represents pEC50>10 (EC50<0.1 nM))”. Also, at HCV genotype 1b replicon, the “Genotype 1b” value is on record as “D (D represents pEC50>10 (EC50<0.1 nM))”.

Regarding `COC(=O)N[C@H](C(=O)N1C[C@@H](OC)C[C@H]1c1nc(-c2ccc(-c3cc(F)c(NC(=O)c4ccc(N5CCN(C(=O)C(C)(C)C)C[C@H]5C)nc4)cc3OC(F)(F)F)cc2)c[nH]1)C1CCOCC1` [Example 28-1], in the experiment with HCV genotype 1a replicon, the “Genotype 1a” value is recorded as “D (D represents pEC50>10 (EC50<0.1 nM))”. Moreover, the “Genotype 1b” value at HCV genotype 1b replicon was “D (D represents pEC50>10 (EC50<0.1 nM))”.

Regarding `COC(=O)N[C@H](C(=O)N1C[C@@H](OC)C[C@H]1c1nc(-c2ccc(-c3cc(F)c(NC(=O)c4ccc(N5CCN(C(=O)C(C)(C)CO)C[C@H]5C)nc4)cc3OC(F)(F)F)cc2)c[nH]1)C(C)C` [Example 27-6], the “Genotype 1a” value in the experiment on HCV genotype 1a replicon is “D (D represents pEC50>10 (EC50<0.1 nM))”. Further, the “Genotype 1b” value on HCV genotype 1b replicon is on record as “D (D represents pEC50>10 (EC50<0.1 nM))”.
